Common to all, as to type: cell-based, human
The test system of test [1] is IKAP transcript. Description: real-time RT-PCR analysis of IKAP RNA levels (exon 20-containing, exon 20-lacking) in treated cells. The following applies: for level of the wild-type of IKAP transcript: GM04663 cells, 24 h, each agent by itself (5 ug/ml EGCG; 6.25 ug/ml δ-tocotrienol). As for the experimental part: (§1) In order to identify agents that could modulate the level of the wild type IKAP transcript produced in FD-derived cells, either by increasing transcription or modulating splicing, FD-derived fibroblast cells (GM04663) were treated with EGCG. RNA was isolated from GM04663 cells treated for 24 h with varying concentrations of EGCG was subjected to real-time RT-PCR analysis using a pair of primers that recognize both of the hnRNP A2/B1 transcripts. More specifically, FD-derived fibroblast cells, seeded in 96-well plates were treated in triplicate for approximately 24 h unless noted otherwise. After treatment, the cells were washed once with PBS and then lysed in 50 μl Cell-to-cDNA lysis buffer (Ambion) at 75° C. for 12 min. After one freeze-thaw cycle, 4 μl of lysate was used in 20 μl RT-PCR. The Quantitect SYBR Green RT-PCR Kit (Qiagen) was used for real-time RT-PR analysis of the relative quantities of the exon 20-containing transcript (wild-type), the exon 20-lacking transcript (mutant), and exon 34-35 containing transcript that is unaffected by the FD-causing mutation (total), as well as the hnRNP A2/B1 and hnRNP A1 transcripts.
The primers used for these analyses were as follows: for the exon 20-containing transcript, 5′-AGTTGTTCATCATCGAGC-3′ (SEQ ID NO: 3) and 5′-[…]-3′ (SEQ ID NO: 4); for exon 20-lacking transcript, 5′-[…]-3′ (SEQ ID NO: 5) and 5′-[…]-3′ (SEQ ID NO: 6); for exon […] containing transcript, 5′-GAGATCATCCAAGAATCGC-3′ (SEQ ID NO: 7) and 5′-GGTAGCTGAATTCTGCTG-3′ (SEQ ID NO: 8); for hnRNP A2/B1 transcript, 5′-GAGTTGTTTCTCGAGCAG-3′ (SEQ ID NO: 9) and 5′-TGATCTTTTGCTTGCAGG-3′ (SEQ ID NO: 10); and for hnRNP A1 transcript, 5′-[…]-3′ (SEQ ID NO: 11) and 5′-[…]-3′ (SEQ ID NO: 12). Primers were used at a concentration of 0.5 μM. An ABI PRISM 7000 Sequence Detection System (Applied Biosystems), programmed as follows, was used to perform the real-time RT-PCR and analysis: 50° C.×30 min and 95° C.×15 min for one cycle, followed by 40 cycles of 94° C.×15 s, 57-60° C.×30 s, and 72° C.×30 s. To present relative amounts of PCR product obtained, results are expressed as changes in the threshold cycle (ΔCT) compared to untreated cells. The threshold cycle refers to the PCR cycle at which the fluorescence of the PCR is increased to a calculated level above background. A change of 1.0 in CT, assuming 100% PCR efficiency, would reflect a twofold change in the starting amount of the RNA template that was amplified.
To control for the amount of RNA present in the samples, RT-PCR amplification of ribosomal 18S RNA was performed on all cell lysates. […] For this analysis, TaqMan Ribosomal RNA Control Reagents were used with the TaqMan EZ RT-PCR Kit (Applied Biosystems) as per the manufacturer's protocol.
(§2) To determine the effect of EGCG on the cellular level of the exon 20-containing (wild type) IKAP mRNA, FD-derived and normal fibroblasts were treated with 50 μg/ml EGCG for varying lengths of time. The levels of hnRNP A2/B1, hnRNP A1, IKAP exon 20-containing (wild type), IKAP exon 20-lacking (mutant), and IKAP exon 34-35-containing (total) transcripts were determined (FIG. 3).

The test system of test [2] is hnRNP A2/B1 transcript. Nature of the test: real-time RT-PCR analysis of hnRNP A2/B1 transcripts in EGCG-treated cells.
Text: (§3) The GM00850 and GM04663 cell lines, homozygous for the IVS20^+6T→C FD-causing mutation, and the GM02912 cell line, derived from an unaffected individual, were obtained from the NIGMS Human Genetic Mutant Cell Repository. LA1-55n cells were provided by Dr. Robert A. Ross. EGCG and δ-tocotrienol were purchased from Calbiochem. A monoclonal antibody generated against a peptide encoded by exons 23-28 of IKBKAP was purchased from BD Biosciences. The 4B10 and DP3B3 monoclonal antibodies, which recognize hnRNP A1 and hnRNP A2/B1, respectively, were provided by Dr. Gideon Dreyfuss.
as §1, with “transcripts. […]” for “transcripts. More specifically, FD-derived fibroblast cells, seeded in 96-well plates were treated in triplicate for approximately 24 h unless noted otherwise. After treatment, the cells were washed once with PBS and then lysed in 50 μl Cell-to-cDNA lysis buffer (Ambion) at 75° C. for 12 min. After one freeze-thaw cycle, 4 μl of lysate was used in 20 μl RT-PCR.”, “transcripts. […]” for “transcripts.”

Test [3] relates to hnRNP A1 transcript. Description: real-time RT-PCR analysis of hnRNP A1 transcript in EGCG-treated cells. Particulars: FD-derived and normal fibroblasts, 50 μg/ml EGCG, varying lengths of time. The procedure: as §1, with “noted otherwise. […] The Quantitect” for “noted otherwise. After treatment, the cells were washed once with PBS and then lysed in 50 μl Cell-to-cDNA lysis buffer (Ambion) at 75° C. for 12 min. After one freeze-thaw cycle, 4 μl of lysate was used in 20 μl RT-PCR. The Quantitect”, “A1 transcripts. […]” for “A1 transcripts.”
as §2

The subject of test [4] is IKAP transcript. Description: RT-PCR with primers in exons 19 and 23, agarose gel, of wild-type and mutant IKAP transcripts. The following applies: 24 h, 50 μg/ml EGCG. As for the experimental part:
The effect of EGCG treatment was further monitored by RT-PCR analysis using primers located in exons 19 and 23 capable of amplifying both the normal and mutant forms of the IKAP transcript. 4 μl of cell lysates produced as described above was used in 20 μl RT-PCR using the One Step RT-PCR Kit (Qiagen) with the following primers which recognize sequences in exons 19 and 23 of IKBKAP: 5′-GCAGCAATCATGTGTCCCA-3′ (SEQ ID NO: 1) and 5′-TAGCATCGCAGACAAGGTC-3′ (SEQ ID NO: 2). The RT-PCR was carried out as follows: one cycle of 50° C.×30 min and 95° C.×15 min, followed by 41 cycles of 94° C.×20 s, 60° C.×30 s and 72° C.×15 s, and then a final extension of 72° C.×2 min. PCR products were analyzed on a 2% agarose gel.

Test [5] has as its system hnRNP A2/B1. Description: Western blot analysis of hnRNP A2/B1 in EGCG-treated cells. Particulars: GM00850 and GM04663 cells, 24 h, 50 μg/ml EGCG.
Text: as §3
(§4) GM00850 and GM04663 cells treated for 24 h with 50 μg/ml of EGCG were washed twice with PBS and lysed in 0.5 M Tris-HCl, pH 6.8, containing 1.4% SDS. Western blot analysis was performed essentially as described by Rubin et al. (Proc. Natl. Acad. Sci. USA 82: 6637-41 (1985)). Equal amounts of protein fractionated on a 7% NuPAGE Tris-Acetate Gel (Invitrogen) were blotted onto nitrocellulose (Bio-Rad) and probed overnight with a monoclonal antibody (BD Biosciences) to IKAP that is directed against the carboxyl end (exons 23-28) of IKAP and therefore recognizes the full-length protein. The blot was then washed and probed with a goat anti-mouse antibody conjugated to alkaline phosphatase (Promega), followed by detection with Western Blue Substrate solution (Promega). […]

The subject of test [6] is hnRNP A1. Description: Western blot analysis of hnRNP A1 in EGCG-treated cells. The following applies: GM00850 and GM04663 cells, 24 h, 50 μg/ml EGCG.
Text: as §3, §4
(Immunoblotting shows a protein as a band on a membrane.)

Test [7] has as its system IKAP. Nature of the test: Western blot analysis of full-length IKAP in treated FD-derived cells. The following applies: FD-derived GM00850 and GM04663 fibroblasts, 24 h, 50 μg/ml EGCG.
Text: as §3, §4

Consider `CC(C)=CCC/C(C)=C/CC/C(C)=C/CC[C@]1(C)CCc2cc(O)cc(C)c2O1` [8-tocotrienol, δ-tocotrienol, reference compound], for which the “level of the wild-type of IKAP transcript” value in test [1] is on record as “did not result in a significant elevation”.

`O=C(O[C@@H]1Cc2c(O)cc(O)cc2O[C@@H]1c1cc(O)c(O)c(O)c1)c1cc(O)c(O)c(O)c1` [EGCG, epigallocatechin gallate]: the “level of the hnRNP A2/B1 transcript” value in test [2] (FD-derived GM04663 cells, 24 h, varying concentrations of EGCG) is recorded as “clear concentration-dependent decrease”; in test [2] (FD-derived and normal fibroblasts, 50 μg/ml EGCG, varying lengths of time), “time-dependent reduction”. In addition, the “level of the hnRNP A1 transcript” value in test [3] is recorded as “no effect”. Also, the “level of the exon 20-lacking transcript” value in test [1] (50 μg/ml EGCG, varying lengths of time) is recorded as “not affected”. Further, the “exon 20-containing IKAP transcript” value in test [1] (FD-derived cells, 50 μg/ml EGCG, varying lengths of time) was “elevated”; in test [1] (normal cells (GM02912), 50 μg/ml EGCG, varying lengths of time), “failed to exhibit an increase”. Also, in test [1], the “level of the wild-type of IKAP transcript” value was “did not result in a significant elevation”. Further, the “exon 20-containing transcript (RT-PCR, exons 19-23, gel)” value in test [4] (FD-derived cells) is given as “clear enhanced presence”; in test [4] (normal cells), “no effect”. In test [5], the “level of hnRNP A2/B1 (Western blot)” value is given as “suppress the level”. The “hnRNP A1 levels (Western blot)” value in test [6] is “unaffected”. In test [7], the “amount of IKAP (full-length protein, Western blot)” value is “clear increase”.
